Assay results: US4468394A, “Cephalosporin compounds” (Eisai Co., Ltd., priority 1981, dated 1984)
Converted amounts (≈) assume the structure as drawn. Where a name gives a salt, the structure may show the parent alone.

What was measured:
Pseud. aeruginosa EP-067 = assay: Antibacterial activity (MIC), Pseud. aeruginosa EP-067; format: cell-based; settings: Pseudomonas aeruginosa
Text: (§1) Tables 1 and 2 show the antibacterial activity (MIC, μg/mL) of the compounds of this invention.

Pseud. aeruginosa EP-071 = assay: Antibacterial activity (MIC), Pseud. aeruginosa EP-071; format: cell-based; settings: Pseudomonas aeruginosa
Text: as §1

Pseud. aeruginosa EP-069 = assay: Antibacterial activity (MIC), Pseud. aeruginosa EP-069; format: cell-based; settings: Pseudomonas aeruginosa
Text: as §1

Kleb. pneumoniae EK-6 = assay: Antibacterial activity (MIC), Kleb. pneumoniae EK-6; format: cell-based; settings: Klebsiella pneumoniae
Text: as §1

[1] = Acute toxicity LD50 (mouse, oral); settings: in vivo
Text: The acute toxicity values [LD50 (mouse, oral)] of the compounds of this invention are higher than 4 g/kg in the case of 7β-[D-2-(6,7-dihydroxy-4-oxo-4H-1-benzothiopyran-3-carboxamide)-2-(4- hydroxyphenyl)acetamide]-3-(1-carboxymethyl-5-tetrazolyl)thiomethyl-3-cephem-4-carboxylic acid and 7β-[D-2-(6,7-diacetoxy-1-ethyl-1,4-dihydro-4-oxoquinoline-3-carboxamide)-2-(4-hydroxyphenyl)acetamide]-3-(1-carboxymethyl-5-tetrazolyl)thiomethyl-3-cephem-4-carboxylic acid, as well as 7β-[D-2-(6,7-dihydroxy-2-oxo-2H-1-benzopyran-3-carboxamide)-2-(4-hydroxyphenyl)acetamide]-3-(1-carboxymethyl-5-tetrazolyl)thiomethyl-3-cephem-4-carboxylic acid and 7β-[D-2-(6,7-dihydroxy-2-oxo-2H-1-benzothiopyran-3-carboxamide)-2-(4- hydroxyphenyl)acetamide]-3-(1-carboxymethyl-5-tetrazolyl)thiomethyl-3-cephem-4-carboxylic acid.

Pseud. aeruginosa = settings: in words; cited from earlier work
Kleb. pneumoniae = settings: in words; cited from earlier work

| SMILES | MIC (Pseud. aeruginosa EP-067; EP067, Table 1) [µg/mL] | MIC (Pseud. aeruginosa EP-071; EP071, Table 1) [µg/mL] | MIC (Pseud. aeruginosa EP-069; EP069, Table 1) [µg/mL] | MIC (Kleb. pneumoniae EK-6; EK6, Table 1) [µg/mL] | LD50 [1] [mg/kg] | MIC (Pseud. aeruginosa EP-067; EP067, Table 2) [µg/mL] | MIC (Pseud. aeruginosa EP-071; EP071, Table 2) [µg/mL] | MIC (Pseud. aeruginosa EP-069; EP069, Table 2) [µg/mL] | MIC (Kleb. pneumoniae EK-6; EK6, Table 2) [µg/mL] | antibacterial activity according to the known literature (Pseud. aeruginosa) | antibacterial activity according to the known literature (Kleb. pneumoniae) |
| --- | --- | --- | --- | --- | --- | --- | --- | --- | --- | --- | --- |
| CO[C@@]1(NC(=O)[C@H](NC(=O)c2csc3cc(OC(C)=O)c(OC(C)=O)cc3c2=O)c2ccc(O)cc2)C(=O)N2C(C(=O)O)=C(COC(C)=O)CS[C@@H]21 [Example 11, 7β-[D-2-(6,7-Diacetoxy-4-oxo-4H-1-benzothiopyran-3-carboxamide)-2-(4-hydroxyphenyl)acetamide]-7α-methoxy-3-acetoxymethyl-3-cephem-4-carboxylic acid] | 3.13 (≈ 4.14 µM) | 0.2 (≈ 0.265 µM) | 3.13 (≈ 4.14 µM) | 0.024 (≈ 0.0318 µM) | – | – | – | – | – | – | – |
| CCn1cc(C(=O)N[C@@H](C(=O)N[C@@H]2C(=O)N3C(C(=O)O)=C(CSc4nnnn4CC(=O)O)CS[C@H]23)c2ccc(O)cc2)c(=O)c2cc(OC(C)=O)c(OC(C)=O)cc21 [Example 5, 7β-[D-2-(6,7-Diacetoxy-1-ethyl-1,4-dihydro-4-oxoquinoline-3-carboxamide)-2-(4-hydroxyphenyl)acetamide]-3-(1-carboxymethyl-5-tetrazolyl)thiomethyl-3-cephem-4-carboxylic acid] | 3.13 (≈ 3.74 µM) | 0.2 (≈ 0.239 µM) | 3.13 (≈ 3.74 µM) | 0.024 (≈ 0.0287 µM) | > 4000 | – | – | – | – | – | – |
| CC(=O)OCC1=C(C(=O)O)N2C(=O)[C@@H](NC(=O)[C@H](NC(=O)c3cc4cc(OC(C)=O)c(OC(C)=O)cc4n(C)c3=O)c3ccc(O)cc3)[C@H]2SC1 [Example 35, 7β-[D-2-(6,7-Diacetoxy-1-methyl-1,2-dihydro-2-oxoquinoline-3-carboxamide)-2-(4-hydroxyphenyl)acetamide]-3-acetoxymethyl-3-cephem-4-carboxylic acid] | – | – | – | – | – | 3.13 (≈ 4.33 µM) | 0.2 (≈ 0.277 µM) | 1.56 (≈ 2.16 µM) | 0.8 (≈ 1.11 µM) | – | – |
| CC1(C)S[C@@H]2[C@H](NC(=O)[C@H](NC(=O)c3cnc4cccnc4c3O)c3ccccc3)C(=O)N2[C@H]1C(=O)O [D(-)-α-(4-hydroxy-1,5-naphthyridine-3-carboxamide)benzylpenicillin, reference compound] | 12.5 (≈ 24 µM) | 0.8 (≈ 1.53 µM) | 12.5 (≈ 24 µM) | 3.13 (≈ 6 µM) | – | – | – | – | – | highest antibacterial activity | – |
| CC(=O)Oc1cc2cc(C(=O)N[C@@H](C(=O)N[C@@H]3C(=O)N4[C@@H]3SC(C)(C)[C@@H]4C(=O)O)c3ccccc3)c(=O)oc2cc1OC(C)=O [Example 14, 6β-[D-2-(6,7-Diacetoxy-2-oxo-2H-1-benzopyran-3-carboxamide)-2-phenylacetamide]penicillanic acid] | – | – | – | – | – | 1.56 (≈ 2.45 µM) | 0.2 (≈ 0.314 µM) | 1.56 (≈ 2.45 µM) | 0.2 (≈ 0.314 µM) | – | – |
| O=C(O)Cn1nnnc1SCC1=C(C(=O)O)N2C(=O)[C@@H](NC(=O)[C@H](NC(=O)c3cc4ccc(O)c(O)c4oc3=O)c3ccc(O)cc3)[C@H]2SC1 [Example 27, 7β-[D-(7,8-Dihydroxy-2-oxo-2H-1-benzopyran-3-carboxamide)-2-(4-hydroxyphenyl)acetamide]-3-(1-carboxymethyl-5-tetrazolyl)thiomethyl-3-cephem-4-carboxylic acid] | – | – | – | – | – | 1.56 (≈ 2.15 µM) | 0.1 (≈ 0.138 µM) | 1.56 (≈ 2.15 µM) | ≤ 0.012 | – | – |
| Cn1nnnc1SCC1=C(C(=O)O)N2C(=O)[C@@H](NC(=O)[C@H](NC(=O)c3cc4cc(O)c(O)cc4oc3=O)c3ccc(O)cc3)[C@H]2SC1 [Example 20, 7β-[D-2-(6,7-Dihydroxy-2-oxo-2H-1-benzopyran-3-carboxamide)-2-(4-hydroxyphenyl)acetamide]-3-(1-methyl-5-tetrazolyl)thiomethyl-3-cephem-4-carboxylic acid] | – | – | – | – | – | 0.8 (≈ 1.17 µM) | 0.2 (≈ 0.293 µM) | 0.8 (≈ 1.17 µM) | 0.2 (≈ 0.293 µM) | – | – |
| CC(=O)OCC1=C(C(=O)O)N2C(=O)[C@@H](NC(=O)[C@H](NC(=O)c3cc4ccc(O)c(O)c4oc3=O)c3ccc(O)cc3)[C@H]2SC1 [Example 25, 7β-[D-2-(7,8-Dihydroxy-2-oxo-2H-1-benzopyran-3-carboxamide)-2-(4-hydroxyphenyl)acetamide]-3-acetoxymethyl-3-cephem-4-carboxylic acid] | – | – | – | – | – | 0.8 (≈ 1.28 µM) | 0.1 (≈ 0.16 µM) | 1.56 (≈ 2.49 µM) | 0.1 (≈ 0.16 µM) | – | – |
| CCn1cc(C(=O)N[C@@H](C(=O)N[C@@H]2C(=O)N3C(C(=O)O)=C(CSc4nnc(C)s4)CS[C@H]23)c2ccc(O)cc2)c(=O)c2cc(O)c(O)cc21 [Example 6, 7β-[D-2-(6,7-Dihydroxy-1-ethyl-1,4-dihydro-4-oxoquinoline-3-carboxamide)-2-(4-hydroxyphenyl)acetamide]-3-[5-methyl-2-(1,3,4-thiadiazolyl)]thiomethyl-3-cephem-4-carboxylic acid] | 3.13 (≈ 4.32 µM) | 0.2 (≈ 0.276 µM) | 3.13 (≈ 4.32 µM) | 0.05 (≈ 0.069 µM) | – | – | – | – | – | – | – |
| CC(=O)Oc1cc2cc(C(=O)N[C@@H](C(=O)N[C@@H]3C(=O)N4[C@@H]3SC(C)(C)[C@@H]4C(=O)O)c3ccccc3)c(=O)sc2cc1OC(C)=O [Example 28, 6β-[D-2-(6,7-Diacetoxy-2-oxo-2H-1-benzothiopyran-3-carboxamide)-2-phenylacetamide]penicillanic acid] | – | – | – | – | – | 1.56 (≈ 2.39 µM) | 0.1 (≈ 0.153 µM) | 3.13 (≈ 4.79 µM) | 0.1 (≈ 0.153 µM) | – | – |
| CCn1cc(C(=O)N[C@@H](C(=O)N[C@@H]2C(=O)N3C(C(=O)O)=C(CSc4nnc(C)s4)CS[C@H]23)c2ccc(O)cc2)c(=O)c2cc(OC(C)=O)c(O)cc21 [Example 12, 7β-[D-2-(6-Acetoxy-7-hydroxy-1-ethyl-1,4-dihydro-4-oxoquinoline-3-carboxamide)-2-(4-hydroxyphenyl)acetamide]-3-[5-methyl-2-(1,3,4-thiadiazolyl)]thiomethyl-3-cephem-4-carboxylic acid sodium salt] | 3.13 | 0.2 | 3.13 | 0.024 | – | – | – | – | – | – | – |
| CC1(C)S[C@@H]2[C@H](NC(=O)[C@H](NC(=O)c3cc4ccccc4oc3=O)c3ccccc3)C(=O)N2[C@H]1C(=O)O [D(-)-α-(coumarin-3-carboxamide)benzylpenicillin, reference compound] | – | – | – | – | – | 12.5 (≈ 24 µM) | 1.56 (≈ 2.99 µM) | 12.5 (≈ 24 µM) | 12.5 (≈ 24 µM) | highest in antibacterial activity | highest in antibacterial activity |
| Cc1nnc(SCC2=C(C(=O)O)N3C(=O)[C@@H](NC(=O)[C@H](NC(=O)c4cc5cc(O)c(O)cc5[nH]c4=O)c4ccc(O)cc4)[C@H]3SC2)s1 [Example 34, 7β-[D-2-(6,7-Dihydroxy-1,2-dihydro-2-oxoquinoline-3-carboxamide)-2-(4-hydroxyphenyl)acetamide]-3-[5-methyl-2-(1,3,4-thiadiazolyl)]thiomethyl-3-cephem-4-carboxylic acid] | – | – | – | – | – | 3.13 (≈ 4.49 µM) | 0.4 (≈ 0.574 µM) | 3.13 (≈ 4.49 µM) | 0.4 (≈ 0.574 µM) | – | – |
| O=C(O)Cn1nnnc1SCC1=C(C(=O)O)N2C(=O)[C@@H](NC(=O)[C@H](NC(=O)c3csc4cc(O)c(O)cc4c3=O)c3ccc(O)cc3)[C@H]2SC1 [Example 10, 7β-[D-2-(6,7-Dihydroxy-4-oxo-4H-1-benzothiopyran-3-carboxamide)-2-(4-hydroxyphenyl)acetamide]-3-(1-carboxymethyl-5-tetrazolyl)thiomethyl-3-cephem-4-carboxylic acid] | 3.13 (≈ 4.22 µM) | 0.2 (≈ 0.27 µM) | 3.13 (≈ 4.22 µM) | ≤ 0.012 | > 4000 | – | – | – | – | – | – |
| O=C(O)Cn1nnnc1SCC1=C(C(=O)O)N2C(=O)[C@@H](NC(=O)[C@H](NC(=O)c3cc4cc(O)c(O)cc4sc3=O)c3ccc(O)cc3)[C@H]2SC1 [Example 30] | – | – | – | – | > 4000 | – | – | – | – | – | – |
| O=C(O)Cn1nnnc1SCC1=C(C(=O)O)N2C(=O)[C@@H](NC(=O)[C@H](NC(=O)c3cc4cc(O)c(O)cc4oc3=O)c3ccc(O)cc3)[C@H]2SC1 [Example 21, 7β-[D-2-(6,7-Dihydroxy-2-oxo-2H-1-benzopyran-3-carboxamide)-2-(4-hydroxyphenyl)acetamide]-3-(1-carboxymethyl-5-tetrazolyl)thiomethyl-3-cephem-4-carboxylic acid] | – | – | – | – | > 4000 | – | – | – | – | – | – |
| CCn1cc(C(=O)N[C@@H](C(=O)N[C@@H]2C(=O)N3[C@@H]2SC(C)(C)[C@@H]3C(=O)O)c2ccccc2)c(=O)c2cc(OC(C)=O)c(OC(C)=O)cc21 [Example 2, 6β-[D-2-(6,7-Diacetoxy-1-ethyl-1,4-dihydro-4-oxoquinoline-3-carboxamide)-2-phenylacetamide]penicillanic acid] | 1.56 (≈ 2.35 µM) | 0.1 (≈ 0.15 µM) | 3.13 (≈ 4.71 µM) | 0.2 (≈ 0.301 µM) | – | – | – | – | – | – | – |
